How the values were obtained:
[1] = system: HeLa cells transfected with estrogen receptor β (mERβ); test: Etoposide-induced apoptosis of HeLa cells stably transfected with mERβ; type: cell-based, human; settings: compound 10^−8 M 1 h, etoposide 5×10^−5 M 6 hour
Description: CMV promoter alone and CMV promoter-driven cDNA for mERα or mErβ were stably transfected into HeLa cells. […] Cells were trypsinized, pelleted and trypan blue positive cells enumerated.
In this experiment, instead of calvaria cells, human HeLa cells which contain undetectable, if any, estrogen receptor were used. HeLa cells were stably transfected with either a CMV promoter-driven cDNA for the murine estrogen receptor-alpha (mERα) or a CMV promoter-driven cDNA for the murine estrogen receptor-beta (mERβ). […] Cells were trypsinized, pelleted and trypan blue positive cells were enumerated.

[2] = system: extracellular signal regulated kinases (ERKs) 1 and 2; test: Western blot of phosphorylated ERK1/2 in MLO-Y4 osteocytic cells; type: cell-based, murine
Method: (§1) MLO-Y4 osteocytic cells were incubated for 25 minutes in serum-free medium. […] Cell lysates were prepared and proteins were separated by electrophoresis in polyacrylamide gels and transferred to PVDF membranes. Western blotting was performed using a specific antibody recognizing phosphorylated ERKs 1 and 2, followed by reblotting with an antibody recognizing total ERKs. Blots were developed by enhanced chemiluminescence.
as §1, with “MLO-Y4” for “MLO-Y4 osteocytic”, “medium in the presence or absence of 50 μM PD98059.” for “medium.”
as §1, with “In this experiment, MLO-Y4” for “MLO-Y4”, “extracellular signal regulated kinases” for “ERKs”, “extracellular signal regulated kinases.” for “ERKs.”, “chemiluminescence. […] This effect is too rapid to be accounted for by the classical mechanism of estrogen action.” for “chemiluminescence.”
as §1, with “In this experiment, MLO-Y4” for “MLO-Y4”, “medium in the presence or absence of 50 μM PD98059.” for “medium.”, “extracellular signal regulated kinases” for “ERKs”, “extracellular signal regulated kinases.” for “ERKs.”

[3] = biological target: T1, human ERα (Homo sapiens, UniProt P03372); test: Estrogen response element luciferase reporter in 293 cells overexpressing hERα; type: cell-based; settings: 3 copies ERE-luciferase
T1 construct: expressed in transfected cells; host or cells: 293 (human embryonic kidney) cells
T1 sequence (P03372 1-595): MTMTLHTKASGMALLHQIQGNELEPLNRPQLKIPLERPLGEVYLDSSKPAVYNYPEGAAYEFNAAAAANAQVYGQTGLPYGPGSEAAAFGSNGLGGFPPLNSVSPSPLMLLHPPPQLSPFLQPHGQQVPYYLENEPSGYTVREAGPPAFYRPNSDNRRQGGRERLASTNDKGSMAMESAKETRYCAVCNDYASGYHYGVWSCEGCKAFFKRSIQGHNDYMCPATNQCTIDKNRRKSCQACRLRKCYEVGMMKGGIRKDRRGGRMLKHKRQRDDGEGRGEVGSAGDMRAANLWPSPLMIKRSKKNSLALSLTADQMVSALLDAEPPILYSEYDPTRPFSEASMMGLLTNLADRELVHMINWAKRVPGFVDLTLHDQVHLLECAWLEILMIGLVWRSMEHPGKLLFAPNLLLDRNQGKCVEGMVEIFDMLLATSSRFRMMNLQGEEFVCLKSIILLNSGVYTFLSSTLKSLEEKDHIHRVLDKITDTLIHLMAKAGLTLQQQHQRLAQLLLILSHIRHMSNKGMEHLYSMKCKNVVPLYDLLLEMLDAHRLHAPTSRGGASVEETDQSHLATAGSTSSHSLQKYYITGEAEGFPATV
Description: The human ERα was overexpressed in 293 cells lacking ERα along with a reporter construct containing 3 copies of an estrogen response element driving the luciferase gene. Light units were counted and normalized to coexpressed b-galactosidase activity to control for differences in transfection efficiency. Results represent percent stimulation compared to ERα transfected cells, but not treated with the two agents. Each bar represents mean of duplicate experiments +/−SEM. *p<0.001 vs. cells not exposed to the sterols.
In this experiment, hERα was overexpressed in 293 cells (which lack constitutive ERα) along with a reporter construct containing 3 copies of an estrogen response element driving the luciferase gene. Light units were counted and normalized to coexpressed β-galactosidase activity to control for differences in transfection efficiency.

C[C@@]12CCC[C@H]1[C@@H]1CCc3cc(O)ccc3[C@H]1CC2 [estratriene-3-ol]
Effect on etoposide-induced apoptosis [1]: potently inhibited | Activation of ERKs (phosphorylated fraction of ERK1/2) ([2]; 10^−8 M, 5, 15 or 30 minutes): activated | Ability to activate ERKs in the presence of PD98059 ([2]; compound 10^−8 M, 5 minutes, 50 μM PD98059): abrogated | Transactivation of an estrogen response element through the estrogen receptor α [3]: did not transactivate
